We go through 28 molecules from paper doi:10.1101/2021.10.07.463234v2 (biorxiv, 2021).

Structures can show the parent of a compound that is named as a salt.

The first test addresses SARS-CoV-2 Mac1 (Severe acute respiratory syndrome coronavirus 2, UniProt P0DTD1). The test is described as follows: biochemical. The note with it: 100 µM; inhibitor.
Take `Cc1cc(C2CCCCC2)n(O)c(=O)c1` [Ciclopirox ethanolamine]: the %inhibition (commonly the change of the read-out against control, counted positive when it falls) is 12.57%. As to `COc1ccc(C[C@@H]2c3cc(OC)c(OC)cc3CC[N@+]2(C)CCC(=O)OCCCCCOC(=O)CC[N@@+]2(C)CCc3cc(OC)c(OC)cc3[C@H]2Cc2ccc(OC)c(OC)c2)cc1OC` [Cisatracurium Besylate], the “%inhibition” value stood at 1.897%.

Staying with this test, now noted: read-out: %inhibition.
On to `CN(C)[C@@H]1C(O)=C(C(N)=O)C(=O)[C@@]2(O)C(O)=C3C(=O)c4c(O)ccc(Cl)c4[C@@](C)(O)[C@H]3C[C@@H]12` [Chlortetracycline HCl], for which the inhibition – broadly, the share of the control response that was lost under treatment – at 100 µM came to 1.82%.

`NS(=O)(=O)c1cc(C2(O)NC(=O)c3ccccc32)ccc1Cl` (stereo not shown) [Chlorthalidone]: the inhibition at 100 µM came out at 1.46%. Take `C[C@H](CCC(=O)O)[C@H]1CC[C@H]2[C@@H]3[C@H](O)C[C@@H]4C[C@H](O)CC[C@]4(C)[C@H]3C[C@H](O)[C@]12C` [Cholic acid]: the inhibition at 100 µM is 0%.

In the case of `C[N+](C)(C)CCO` [Choline Chloride], the inhibition at 100 µM amounted to 0%. On the same count and under the same terms, as for `O=C(O)C(O)C(O)C(=O)O` (stereo not shown) [Choline bitartrate], the figure is 0%. Still for that read-out and setting: as for `O=C(O)c1cc(=O)c2ccccc2o1` [Chromocarb], the figure is 21.6%; as for `CC(C)C(=O)OCC(=O)[C@@]12O[C@H](C3CCCCC3)O[C@@H]1C[C@H]1[C@@H]3CCC4=CC(=O)C=C[C@]4(C)[C@H]3[C@@H](O)C[C@@]12C` [Ciclesonide], 0%. Still for that read-out and setting: as for `Cc1cc(C2CCCCC2)n(O)c(=O)c1` [Ciclopirox], the figure is 22.9%; as for `Nc1ccn(C[C@@H](CO)OCP(=O)(O)O)c(=O)n1` [Cidofovir], 0%; as for `CC1(C)C[C@@H]1C(=O)N/C(=C\CCCCSC[C@H](N)C(=O)O)C(=O)O` [Cilastatin], 0%. Regarding `CC(C)[C@H]1C(=O)N[C@@H](CCCN=C(N)N)C(=O)NCC(=O)N[C@@H](CC(=O)O)C(=O)N[C@H](Cc2ccccc2)C(=O)N1C` [Cilengitide?trifluoroacetate], the inhibition at 100 µM stood at 10.8%. Turning to `COCCOC(=O)C1=C(C)NC(C)=C(C(=O)OC/C=C/c2ccccc2)C1c1cccc([N+](=O)[O-])c1` (stereo not shown) [Cilnidipine], the inhibition at 100 µM turned out to be 0%. Still for that read-out and setting: next, `COc1ccc([C@]2(C#N)CC[C@@H](C(=O)O)CC2)cc1OC1CCCC1` [Cilomilast]: 1.61%; `O=C1CCc2cc(OCCCCc3nnnn3C3CCCCC3)ccc2N1` [Cilostazol]: 7.33%. The same measure, in the same setting: next, `CN/C(=N\CCSCc1nc[nH]c1C)NC#N` [Cimetidine]: 20.9%; `C[C@@H](NCCCc1cccc(C(F)(F)F)c1)c1cccc2ccccc12` [Cinacalcet HCl]: 4.38%; `CCCCOc1cc(C(=O)NCCN(CC)CC)c2ccccc2n1` [Cinchocaine]: 0%. For the molecule `O=C(O)c1cc(-c2ccccc2)nc2ccccc12` [Cinchophen], the inhibition at 100 µM was 17.7%.

Take `COc1cc(/C=C/C(=O)N2CCN(CC(=O)N3CCCC3)CC2)cc(OC)c1OC` [Cinepazide maleate]: the inhibition at 100 µM turned out to be 24.7%. With `CCn1nc(C(=O)O)c(=O)c2cc3c(cc21)OCO3` [Cinoxacin], the inhibition at 100 µM is 0.626%. On the same count and under the same terms, as for `CC(C)(Oc1ccc(C2CC2(Cl)Cl)cc1)C(=O)O` (stereo not shown) [Ciprofibrate], the figure is 20.7%; as for `COc1cc(N)c(Cl)cc1C(=O)N[C@H]1CCN(CCCOc2ccc(F)cc2)C[C@H]1OC` [Cisapride hydrate], 0%. Take `COc1cc(N)c(Cl)cc1C(=O)N[C@@H]1CCN(CCCOc2ccc(F)cc2)C[C@@H]1OC` [Cisapride]: the inhibition at 100 µM turned out to be 1.02%.

For the molecule `CN(C)CCCC1(c2ccc(F)cc2)OCc2cc(C#N)ccc21` (stereo not shown) [Citalopram HBr], the inhibition at 100 µM was 0%. Consider `C[N+](C)(C)CCOP(=O)(O)OP(=O)([O-])OC[C@H]1O[C@@H](n2ccc(N)nc2=O)[C@H](O)[C@@H]1O` [Citicoline sodium], for which the inhibition at 100 µM turned out to be 1.89%. The same measure, in the same setting: as for `CC(=O)NC1CCSC1=O` (stereo not shown) [Citiolone], the figure is 0%.
